Measurements as given in patent US20030125343A1, “Combinations of receptor tyrosine kinase inhibitor with an a1-acidic glycoprotein binding compound” (priority 1999, published 2003).

Key:
KU812 leukemic cells = experiment: In vivo treatment of nude mice injected s.c. with KU812 leukemic cells; parameters: species or system CD1 nu/nu mice
Method: Seven to 9 week-old female CD1 nu/nu mice purchased at Charles River Breedin Laboratories (Calco, Italy) are kept under standard laboratory conditions according to the guidelines of the National Cancer Institutes, Milan, Italy. This study is approved by the institutional ethics committee for laboratory animals used in experimental research. KU812 bcr/abl positive cell line is injected (50×10^6 cells per animal) subcutaneously in the left flank of the animal. Oral treatment is administered through a syringe connected to a soft plastic tube introduced in esophagus (gavage). Tumor weight (TW) and total weight are monitored every 3-4 days. TW is calculated by the formula TW [mg]=(d^2×D), where d and D are the shortest and longest diameters of the tumor, respectively, measured in millimeters. Treatment is started 1-15 days after leukemic cell injection.
Nude mice are injected s.c. with 50 millions KU812 cells. Treatment is initiated after 1, 8 and 15 days respectively (groups I to III), in the presence of approximately, 50, 300 millions and 1 billion leukemic cells. […] To test this hypothesis mice in group II are treated for 11 or 18 days.
Mice are injected with KU812 cells and treatment is started 11 days later in the presence of an approximate tumor load of 400 mg.

KU812 cells = experiment: Tritiated thymidine uptake in vitro proliferation assay; details: erythromycin 5 to 30 μM, STI571 1 μM, AGP 1 mg/ml
bcr/abl = target: T1, bcr/abl (Homo sapiens, UniProt P00519); experiment: In vitro bcr/abl autophosphorylation in KU812 cells (anti-phosphotyrosine western blot); format: cell-based; details: erythromycin base 100 μM, STI571 3 μM, AGP 2 mg/ml, 1 hour
T1 construct: Endogenous bcr/abl and tyrosine-phosphorylated bcr/abl are detected with the corresponding mouse monoclonal antibody; BCR N-terminal portion (fusion partner, human BCR P11274); endogenous in cells; host or cells: KU812 (DSMZ ACC 378), in culture or as subcutaneous tumour in CD1 nu/nu mice; the other entry of the earlier key: BCR (P11274, Breakpoint cluster region protein)
T1 sequence (P00519 with tags, fused parts or gaps): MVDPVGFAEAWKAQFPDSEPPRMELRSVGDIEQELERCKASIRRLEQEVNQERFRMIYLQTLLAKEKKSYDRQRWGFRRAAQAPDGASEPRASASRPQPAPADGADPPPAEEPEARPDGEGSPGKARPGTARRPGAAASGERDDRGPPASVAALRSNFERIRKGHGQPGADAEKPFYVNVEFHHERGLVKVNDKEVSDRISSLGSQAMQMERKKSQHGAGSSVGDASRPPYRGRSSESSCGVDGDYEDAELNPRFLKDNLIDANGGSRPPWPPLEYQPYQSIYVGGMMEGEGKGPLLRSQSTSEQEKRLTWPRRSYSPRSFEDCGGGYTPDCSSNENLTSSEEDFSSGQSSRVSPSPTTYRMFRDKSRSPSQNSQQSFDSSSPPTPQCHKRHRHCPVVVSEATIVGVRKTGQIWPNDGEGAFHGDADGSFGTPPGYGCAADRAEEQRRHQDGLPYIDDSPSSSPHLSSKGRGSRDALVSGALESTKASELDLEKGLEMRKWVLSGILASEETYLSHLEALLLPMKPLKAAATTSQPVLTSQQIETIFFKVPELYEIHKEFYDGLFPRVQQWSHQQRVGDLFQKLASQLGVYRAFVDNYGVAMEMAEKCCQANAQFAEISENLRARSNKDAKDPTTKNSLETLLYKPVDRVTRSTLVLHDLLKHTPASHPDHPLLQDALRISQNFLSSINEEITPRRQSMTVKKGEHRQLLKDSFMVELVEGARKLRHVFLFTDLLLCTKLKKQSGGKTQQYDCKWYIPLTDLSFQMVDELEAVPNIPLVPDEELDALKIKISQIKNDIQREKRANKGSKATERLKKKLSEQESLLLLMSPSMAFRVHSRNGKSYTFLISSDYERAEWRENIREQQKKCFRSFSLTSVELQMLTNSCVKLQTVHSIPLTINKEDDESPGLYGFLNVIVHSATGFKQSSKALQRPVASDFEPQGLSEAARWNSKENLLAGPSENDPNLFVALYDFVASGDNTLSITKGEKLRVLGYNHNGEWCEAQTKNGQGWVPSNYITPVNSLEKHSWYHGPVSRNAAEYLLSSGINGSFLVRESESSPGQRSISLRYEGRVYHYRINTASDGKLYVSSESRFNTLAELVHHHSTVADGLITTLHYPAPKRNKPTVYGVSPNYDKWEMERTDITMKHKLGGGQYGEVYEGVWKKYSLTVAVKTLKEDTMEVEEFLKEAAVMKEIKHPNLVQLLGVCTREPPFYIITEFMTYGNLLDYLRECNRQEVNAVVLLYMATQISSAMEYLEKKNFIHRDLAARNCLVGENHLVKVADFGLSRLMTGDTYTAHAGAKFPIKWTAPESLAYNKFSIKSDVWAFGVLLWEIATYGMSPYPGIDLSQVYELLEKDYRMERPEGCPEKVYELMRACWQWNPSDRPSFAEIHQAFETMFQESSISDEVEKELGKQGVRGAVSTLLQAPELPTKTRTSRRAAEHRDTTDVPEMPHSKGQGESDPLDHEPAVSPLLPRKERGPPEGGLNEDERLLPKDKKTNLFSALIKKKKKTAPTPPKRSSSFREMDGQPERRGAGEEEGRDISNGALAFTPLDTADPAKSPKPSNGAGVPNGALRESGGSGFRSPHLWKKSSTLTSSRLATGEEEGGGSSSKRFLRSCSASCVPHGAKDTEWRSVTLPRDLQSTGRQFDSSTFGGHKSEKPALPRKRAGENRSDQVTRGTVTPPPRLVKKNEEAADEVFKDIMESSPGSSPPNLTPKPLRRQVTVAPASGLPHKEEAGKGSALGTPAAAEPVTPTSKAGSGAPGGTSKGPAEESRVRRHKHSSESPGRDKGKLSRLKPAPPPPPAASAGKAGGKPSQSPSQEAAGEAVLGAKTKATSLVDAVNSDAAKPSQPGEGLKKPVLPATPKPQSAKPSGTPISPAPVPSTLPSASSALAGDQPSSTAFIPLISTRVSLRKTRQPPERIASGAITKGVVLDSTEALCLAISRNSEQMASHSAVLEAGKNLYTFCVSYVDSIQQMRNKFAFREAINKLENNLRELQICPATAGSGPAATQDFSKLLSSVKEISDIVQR

| Structure (SMILES) | Animals that developed tumor growth, non pretreated mice (KU812 leukemic cells; 160 mg/kg every 8 hours for 11 days starting 24 hours after cell injection) | Cure, group printed as 'group II' (KU812 leukemic cells; 160 mg/kg p.o. every 8 hours for 11 days, sentence follows the group II relapse rate) | Cured animals, controls not pretreated (KU812 leukemic cells; injected with KU812, treated with STI571 24 hours later) | Animals with tumor growth, pretreated mice (KU812 leukemic cells; pretreated with STI571, then 160 mg/kg every 8 hours for 11 days starting 24 hours after injection, p<0.05) | Cured animals, pretreated with STI571 (KU812 leukemic cells; pretreated, injected with KU812, treated 24 hours later, p<0.01 vs controls) | Response of relapsed tumors to re-treatment (KU812 leukemic cells; same 11 day regimen, started when tumors measurable again) | Cure, group I (KU812 leukemic cells; treatment started 1 day after cell injection, 160 mg/kg p.o. every 8 hours for 11 days) | Animals showing disappearance of the tumor / tumor free (KU812 leukemic cells; treatment started 11 days after injection, tumor load about 400 mg, every 8 hours for 18 days) | Number of animals that relapsed (KU812 leukemic cells; treatment started at day 11, 18 days of treatment, relapse between day 25 and 40) | Animals cured at last day of follow up (day 120) (KU812 leukemic cells; treatment started at day 11, tumor load about 400 mg, 18 days, p<0.01 between groups) | Cure of animals bearing large tumors (KU812 leukemic cells; tumors >400 mg at start of treatment) | Tumor regression, erythromycin alone (KU812 leukemic cells; control groups, erythromycin in methyl cellulose 5%, not shown) | Effect of erythromycin on AGP-mediated block of STI571 activity on KU812 proliferation (KU812 cells) | Effect of erythromycin on STI571 block of bcr/abl kinase activity in presence of AGP (bcr/abl) |
| --- | --- | --- | --- | --- | --- | --- | --- | --- | --- | --- | --- | --- | --- | --- |
| Cc1ccc(NC(=O)c2ccc(CN3CCN(C)CC3)cc2)cc1Nc1nccc(-c2cccnc2)n1 [STI571] | 0/14 | no cure is ever observed | 16/16 | 7/14 | 8/16 | respond poorly to the new treatment | reproducibly cured | 5/15 | 4 animals | 1/13 | no animal was cured | – | – | – |
| CC[C@H]1OC(=O)[C@H](C)[C@@H](O[C@H]2C[C@@](C)(OC)[C@@H](O)[C@H](C)O2)[C@H](C)[C@@H](O[C@@H]2O[C@H](C)C[C@H](N(C)C)[C@H]2O)[C@](C)(O)C[C@@H](C)C(=O)[C@H](C)[C@@H](O)[C@]1(C)O [erythromycin, Erythromycin] | – | – | – | – | – | – | – | – | – | – | – | do not show any evidence of tumor regression | restores sensitivity to STI571 with a clear dose response relationship | STI571 activity can be restored |
